“And” between values parts separate entries of the source, which are not always exact repeats. Identical values can stand only once. Like-named read-outs stand apart in the source and are kept apart here.
Experiments:
CYP2B6 = CYP2B6 phenotyping with bupropion; conditions: rifampicin-mediated induction; matrix not stated
[1] = type: in vivo, human
CYP2D6 = conditions: read-out: inhibition constant (Ki); cited from earlier work
[2] = Comparison of probe Cmax and AUC in DBS and plasma; type: in vivo, human; conditions: for blood plasma ratio: human, capillary whole blood (DBS) versus venous plasma, oral
[3] = after a single 75-mg bupropion dose; cited from earlier work
CYP1A2 = target: T1, CYP1A2 (Homo sapiens, UniProt P05177); assay: CYP1A2 phenotyping with caffeine; conditions: par/caf AUClast ratio in DBS
T1 sequence (P05177 1-516): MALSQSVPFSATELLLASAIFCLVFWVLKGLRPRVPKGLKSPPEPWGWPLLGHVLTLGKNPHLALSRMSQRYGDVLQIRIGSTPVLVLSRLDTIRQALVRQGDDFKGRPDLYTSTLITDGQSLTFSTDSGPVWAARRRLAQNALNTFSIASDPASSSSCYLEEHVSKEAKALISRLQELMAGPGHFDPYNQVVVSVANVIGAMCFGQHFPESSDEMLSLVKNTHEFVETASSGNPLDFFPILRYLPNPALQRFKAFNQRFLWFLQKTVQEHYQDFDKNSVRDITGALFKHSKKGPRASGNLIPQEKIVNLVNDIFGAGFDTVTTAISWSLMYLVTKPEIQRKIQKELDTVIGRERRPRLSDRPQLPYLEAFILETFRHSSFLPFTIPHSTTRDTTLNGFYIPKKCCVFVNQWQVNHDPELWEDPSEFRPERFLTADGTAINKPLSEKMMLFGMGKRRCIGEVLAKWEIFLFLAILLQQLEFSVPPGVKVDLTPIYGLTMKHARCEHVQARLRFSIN

[4] = Side effects reported by volunteers; conditions: 10 healthy volunteers
CYP2C19 = CYP2C19 (Homo sapiens, UniProt P33261); conditions: previous studies; cited from earlier work
CYP3A = CYP3A phenotyping with midazolam; conditions: voriconazole 400 mg 2 h before cocktail
[5] = after a 75-mg single dose, from free plasma fraction and liver/plasma ratio
[6] = after a single 25-mg dose, approximately 3 times less than 75 mg

CYP2C19, sequence (P33261 whole entry): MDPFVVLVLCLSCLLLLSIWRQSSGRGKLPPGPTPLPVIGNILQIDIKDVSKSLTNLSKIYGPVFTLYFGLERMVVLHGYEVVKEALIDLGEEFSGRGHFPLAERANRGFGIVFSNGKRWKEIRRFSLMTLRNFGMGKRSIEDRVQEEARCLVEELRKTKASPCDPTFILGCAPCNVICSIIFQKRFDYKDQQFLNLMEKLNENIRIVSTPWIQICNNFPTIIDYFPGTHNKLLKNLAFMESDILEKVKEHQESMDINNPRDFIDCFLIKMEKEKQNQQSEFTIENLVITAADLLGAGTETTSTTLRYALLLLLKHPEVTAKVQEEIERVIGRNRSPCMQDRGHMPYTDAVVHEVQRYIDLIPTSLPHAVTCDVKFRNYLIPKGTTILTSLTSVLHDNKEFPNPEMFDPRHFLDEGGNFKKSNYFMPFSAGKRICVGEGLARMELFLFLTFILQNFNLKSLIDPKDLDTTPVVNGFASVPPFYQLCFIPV

CC(NC(C)(C)C)C(=O)c1cccc(Cl)c1 (centres unmarked) [Bupropion, bupropion]
decrease in bupropion AUC (CYP2B6): approximately threefold | maximal estimated liver concentrations [1, 5]: 0.73 µmol/L | maximal estimated liver concentrations [1, 6]: 0.24 µmol/L | Ki (CYP2D6): 21 µM

COc1ccc2c(c1)[C@]13CCCC[C@@H]1[C@H](C2)N(C)CC3 [Dextromethorphan, dextromethorphan]
Cmax and AUC in DBS vs plasma (mean ratio, blood to plasma ratio) ([2]; capillary DBS vs venous plasma): higher in DBS

CC(C(=O)O)c1ccc(-c2ccccc2)c(F)c1 (centres unmarked) [Flurbiprofen, flurbiprofen]
blood plasma ratio [2]: ~0.6

Cc1ncc2n1-c1ccc(Cl)cc1C(c1ccccc1F)=NC2 [Midazolam, midazolam]
blood plasma ratio [2]: ~0.6

CC(NC(C)(C)CO)C(=O)c1cccc(Cl)c1 (centres unmarked) [OH-bup, 4′-hydroxybupropion]
maximal plasma concentrations [3]: 0.52 µmol/L | maximal estimated liver concentrations [1, 5]: 1.13 µmol/L | maximal estimated liver concentrations [1, 6]: 0.38 µmol/L | Ki (CYP2D6): 13.3 µM

COc1ccc2[nH]c([S+]([O-])Cc3ncc(C)c(OC)c3C)nc2c1 (centres unmarked) [Omeprazole, omeprazole]
blood plasma ratio [2]: ~0.6

CC(NC(C)(C)C)C(O)c1cccc(Cl)c1 (centres unmarked) [erythrohydrobupropion]
maximal plasma concentrations [3]: 0.03 µmol/L | maximal estimated liver concentrations [1, 5]: 0.16 µmol/L | maximal estimated liver concentrations [1, 6]: 0.05 µmol/L | Ki (CYP2D6): 1.7 µM

COCCCC/C(=N\OCCN)c1ccc(C(F)(F)F)cc1 [fluvoxamine]
effect on CYP1A2 activity (CYP1A2): potently inhibited | reported side effects [4]: four volunteers reported short-lasting troubled vision

CO[C@H]1/C=C/O[C@@]2(C)Oc3c(C)c(O)c4c(O)c(c(/C=N/N5CCN(C)CC5)c(O)c4c3C2=O)NC(=O)/C(C)=C\C=C\[C@H](C)[C@H](O)[C@@H](C)[C@@H](O)[C@@H](C)[C@H](OC(C)=O)[C@@H]1C [rifampicin]
effect on CYP1A2 activity (CYP1A2): slightly, but not significantly, increased | extent of CYP2C19 induction (CYP2C19): 4.2 fold and 2.6 fold

C[C@H](NC(C)(C)C)[C@@H](O)c1cccc(Cl)c1 [threohydrobupropion]
maximal plasma concentrations [3]: 0.24 µmol/L | maximal estimated liver concentrations [1, 5]: 1.31 µmol/L | maximal estimated liver concentrations [1, 6]: 0.44 µmol/L | Ki (CYP2D6): 5.4 µM

C[C@@H](c1ncncc1F)[C@](O)(Cn1cncn1)c1ccc(F)cc1F [voriconazole]
effect on CYP3A activity (CYP3A): significantly inhibited | reported side effects [4]: four volunteers reported short-lasting troubled vision

Source: PMC4151019 (Clinical Pharmacology and Therapeutics, 2014)
